Reference: ChEMBL document CHEMBL1123640, “Synthesis and antiviral activity of carbocyclic analogues of xylofuranosides of 2-amino-6-substituted-purines and 2-amino-6-substituted-8-azapurines” (1987)
Converted amounts (≈) assume the structure as drawn.

Columns and labels:
Homo sapiens [1] = species on record: Homo sapiens; experiment: Cytotoxicity was determined at 1000 uM; format: functional
Homo sapiens [2] = species on record: Homo sapiens; experiment: Antiviral activity against Varicella-Zoster virus (VV) in human foreskin cell cultures in virus plaque reduction assay at 1000 uM; format: functional
Homo sapiens [3] = species on record: Homo sapiens; experiment: (§1) Cytotoxicity was determined at 100 uM; format: functional
Homo sapiens [4] = species on record: Homo sapiens; experiment: Antiviral activity against Varicella-Zoster virus (VV) in human foreskin cell cultures in virus plaque reduction assay at 32 uM; format: functional
Homo sapiens [5] = species on record: Homo sapiens; experiment: (§2) Cytotoxicity was determined at 320 uM; format: functional
Homo sapiens [6] = species on record: Homo sapiens; experiment: Antiviral activity against Varicella-Zoster virus (VV) in human foreskin cell cultures in virus plaque reduction assay at 320 uM; format: functional
Homo sapiens [7] = species on record: Homo sapiens; experiment: Antiviral activity against Varicella-Zoster virus (VV) in human foreskin cell cultures in virus plaque reduction assay at 10 uM; format: functional
Homo sapiens [8] = species on record: Homo sapiens; experiment: Antiviral activity against Varicella-Zoster virus (VV) in human foreskin cell cultures in virus plaque reduction assay at 100 uM; format: functional
Homo sapiens [9] = species on record: Homo sapiens; experiment: Antiviral activity against Varicella-Zoster virus (VV) in human foreskin cell cultures in virus plaque reduction assay at 3.2 uM; format: functional
Homo sapiens [10] = species on record: Homo sapiens; experiment: (§3) Cytotoxicity was determined at 32 uM; format: functional
Human alphaherpesvirus 1 [11] = experiment: The compound was tested in vitro for definite and significant anti viral activity against Herpes simplex virus type 1 (strain 377); value indicates definite and significant antiviral activity; format: functional
Human alphaherpesvirus 1 [12] = experiment: Minimum inhibitory concentration required to inhibit Herpes simplex virus type 1 (strain 377) induced cytopathogenic effects by 50%.; format: functional
P388 = experiment: Tested for inhibitory activity against P-388 leukemia cells; format: functional; details: Mus musculus, read-out: ED50 (the source's name)
Homo sapiens [13] = species on record: Homo sapiens; experiment: Antiviral activity against Varicella-Zoster virus (VV) in human foreskin cell cultures in virus plaque reduction assay at 1 uM; format: functional
MRC5 [14] = experiment: Percent reduction of CPE (plaques) at the time of harvest at 3.2 uM; format: functional, Homo sapiens
MRC5 [15] = experiment: Percent reduction of CPE (plaques) at the time of harvest at 320 uM; format: functional, Homo sapiens
MRC5 [16] = experiment: Percent reduction of CPE (plaques) at the time of harvest at 32 uM; format: functional, Homo sapiens
MRC5 [17] = experiment: Percent reduction of CPE (plaques) at the time of harvest at 10 uM; format: functional, Homo sapiens
Human alphaherpesvirus 1 [18] = experiment: The compound was tested in vitro for anti viral activity against Herpes simplex virus type 1 (strain 377) (experiment 2); value indicates definite and significant antiviral activity; format: functional
Homo sapiens [19] = species on record: Homo sapiens; experiment: Antiviral activity against Varicella-Zoster virus (VV) in human foreskin cell cultures in virus plaque reduction assay at 3.2uM; format: functional
MRC5 [20] = experiment: Replication of human cytomegalovirus strain […] virus yield reduction assay in human diploid embryonic lung cells (MRC5) at 320 uM; format: functional
MRC5 [21] = experiment: Replication of human cytomegalovirus strain […] virus yield reduction assay in human diploid embryonic lung cells (MRC5) at 1 uM; format: functional
MRC5 [22] = experiment: Percent reduction of CPE (plaques) at the time of harvest at 1000 uM (308 ug/mL); format: functional, Homo sapiens
Human alphaherpesvirus 2 [23] = experiment: The compound was tested in vitro for anti viral activity against Herpes simplex virus type 2 (strain MS) (experiment 1); value indicates definite and significant antiviral activity
MRC5 [24] = experiment: Cytotoxicity (gross morphology) was evaluated at 3.2uM; format: functional, Homo sapiens
MRC5 [25] = experiment: Replication of human cytomegalovirus strain […] virus yield expressed as plaque forming units/mL at 1 uM; format: functional
MRC5 [26] = experiment: Replication of human cytomegalovirus strain […] virus yield reduction assay in human diploid embryonic lung cells (MRC5) at 1000 uM (308 ug/mL); format: functional
MRC5 [27] = experiment: Replication of human cytomegalovirus strain […] virus yield expressed as plaque forming units/mL at 320 uM; format: functional
MRC5 [28] = experiment: Replication of human cytomegalovirus strain […] virus yield reduction assay in human diploid embryonic lung cells (MRC5) at 3.2 uM; format: functional
MRC5 [29] = experiment: Replication of human cytomegalovirus strain […] virus yield expressed as plaque forming units/mL at 1000 uM (308 ug/mL); format: functional
MRC5 [30] = experiment: Replication of human cytomegalovirus strain […] virus yield reduction assay in human diploid embryonic lung cells (MRC5) at 10 uM; format: functional
MRC5 [31] = experiment: as §1; format: functional, Homo sapiens
MRC5 [32] = experiment: Cytotoxicity (gross morphology) was evaluated at 10 uM; format: functional, Homo sapiens
MRC5 [33] = experiment: Percent reduction of CPE (plaques) at the time of harvest at 1 uM; format: functional, Homo sapiens
MRC5 [34] = experiment: Percent reduction of CPE (plaques) at the time of harvest at 100 uM; format: functional, Homo sapiens
MRC5 [35] = experiment: Cytotoxicity (gross morphology) was evaluated at 1 uM; format: functional, Homo sapiens
MRC5 [36] = experiment: Cytotoxicity (gross morphology) was evaluated at 32 uM; format: functional, Homo sapiens
MRC5 [37] = experiment: Replication of human cytomegalovirus strain […] virus yield reduction assay in human diploid embryonic lung cells (MRC5) at 100 uM; format: functional
MRC5 [38] = experiment: Replication of human cytomegalovirus strain […] virus yield expressed as plaque forming units/mL at 32 uM; format: functional
Human alphaherpesvirus 2 [39] = experiment: Minimum inhibitory concentration required to inhibit Herpes simplex virus type 2 (strain MS) induced cytopathogenic effects by 50%. (experiment 1)
Human alphaherpesvirus 1 [40] = experiment: The compound was tested in vitro for anti viral activity against Herpes simplex virus type 1 (strain 377) (experiment 1); value indicates definite and significant antiviral activity; format: functional
Human alphaherpesvirus 2 [41] = experiment: The compound was tested in vitro for anti viral activity against Herpes simplex virus type 2 (strain MS) (experiment 2); value indicates definite and significant antiviral activity
Human alphaherpesvirus 2 [42] = experiment: Minimum inhibitory concentration required to inhibit Herpes simplex virus type 2 (strain MS) induced cytopathogenic effects by 50%. (experiment 2)
MRC5 [43] = experiment: Replication of human cytomegalovirus strain […] virus yield expressed as plaque forming units/mL at 100 uM; format: functional
MRC5 [44] = experiment: as §3; format: functional, Homo sapiens
MRC5 [45] = experiment: Replication of human cytomegalovirus strain […] virus yield expressed as plaque forming units/mL at 10 uM; format: functional
Human alphaherpesvirus 1 [46] = experiment: Minimum inhibitory concentration required to inhibit Herpes simplex virus type 1 (strain 377) induced cytopathogenic effects by 50%. (experiment 2); format: functional
MRC5 [47] = experiment: Replication of human cytomegalovirus strain […] virus yield expressed as plaque forming units/mL at 3.2 uM; format: functional
MRC5 [48] = experiment: Cytotoxicity (gross morphology) was evaluated at 100 uM; format: functional, Homo sapiens
MRC5 [49] = experiment: as §2; format: functional, Homo sapiens
Human alphaherpesvirus 1 [50] = experiment: Minimum inhibitory concentration required to inhibit Herpes simplex virus type 1 (strain 377) induced cytopathogenic effects by 50%. (experiment 1); format: functional
MRC5 [51] = experiment: Replication of human cytomegalovirus strain […] virus yield reduction assay in human diploid embryonic lung cells (MRC5) at 32 uM; format: functional

Nc1nc2c(ncn2COC(CO)CO)c(=O)[nH]1 [GANCICLOVIR]
Reduction (Homo sapiens [1]): 0 | Reduction (Homo sapiens [2]): 97% | Cytotoxicity (Homo sapiens [3]): 0 | Reduction (Homo sapiens [4]): 56% | Cytotoxicity (Homo sapiens [5]): 0 | Reduction (Homo sapiens [6]): 97% | Reduction (Homo sapiens [7]): 35% | Reduction (Homo sapiens [8]): 82% | Reduction (Homo sapiens [9]): 24% | Cytotoxicity (Homo sapiens [10]): 0

Nc1nc(N)c2nnn(C3CC(CO)C(O)C3O)c2n1 (stereo not given)
Virus rating (Human alphaherpesvirus 1 [11]): 2 | MIC50 (Human alphaherpesvirus 1 [12]): 66.9 µg/mL (≈ 238 µM) | EC50 (P388): 5.3 µM

Nc1nc(O)c2ncn(C3CC(CO)C(O)C3O)c2n1 (stereo not given)
Reduction (Homo sapiens [13]): 18% | Reduction (MRC5 [14]): 0% | Reduction (MRC5 [15]): 100% | Reduction (Homo sapiens [2]): 100% | Reduction (MRC5 [16]): 25% | Reduction (MRC5 [17]): 0% | Virus rating (Human alphaherpesvirus 1 [18]): 5.6 | Reduction (Homo sapiens [19]): 18% | Virus yield reduction (MRC5 [20]): 5.2 | Virus yield reduction (MRC5 [21]): 0.2 | Reduction (MRC5 [22]): 100% | Virus rating (Human alphaherpesvirus 2 [23]): 2.6 | Cytotoxicity (MRC5 [24]): 0 | CMV yield (MRC5 [25]): 96000 pfu/ml | Reduction (Homo sapiens [4]): 79% | Virus yield reduction (MRC5 [26]): 5.2 | CMV yield (MRC5 [27]): 0 pfu/ml | Virus yield reduction (MRC5 [28]): 0.2 | CMV yield (MRC5 [29]): 0 pfu/ml | Virus yield reduction (MRC5 [30]): 0.2 | Cytotoxicity (MRC5 [31]): 0 | Cytotoxicity (MRC5 [32]): 0 | Reduction (Homo sapiens [6]): 100% | Reduction (MRC5 [33]): 0% | Reduction (MRC5 [34]): 80% | Cytotoxicity (MRC5 [35]): 0 | Reduction (Homo sapiens [7]): 26% | Cytotoxicity (MRC5 [36]): 0 | Virus yield reduction (MRC5 [37]): 3.2 | EC50 (P388): 8.9 µM | CMV yield (MRC5 [38]): 12800 pfu/ml | MIC50 (Human alphaherpesvirus 2 [39]): 22.8 µg/mL (≈ 81.1 µM) | Virus rating (Human alphaherpesvirus 1 [40]): 5.7 | Virus rating (Human alphaherpesvirus 2 [41]): 3.9 | MIC50 (Human alphaherpesvirus 2 [42]): 23.5 µg/mL (≈ 83.5 µM) | CMV yield (MRC5 [43]): 100 pfu/ml | Cytotoxicity (MRC5 [44]): 0 | CMV yield (MRC5 [45]): 96000 pfu/ml | Reduction (Homo sapiens [8]): 100% | MIC50 (Human alphaherpesvirus 1 [46]): 3 µg/mL (≈ 10.7 µM) | CMV yield (MRC5 [47]): 108000 pfu/ml | Cytotoxicity (MRC5 [48]): 0 | Cytotoxicity (MRC5 [49]): 0 | MIC50 (Human alphaherpesvirus 1 [50]): 1.8 µg/mL (≈ 6.4 µM) | Virus yield reduction (MRC5 [51]): 1.1

Nc1nc2c(ncn2COCCO)c(=O)[nH]1 [ACYCLOVIR]
Cytotoxicity (Homo sapiens [1]): 0 | Reduction (Homo sapiens [13]): 35% | Reduction (Homo sapiens [2]): 100% | Cytotoxicity (Homo sapiens [3]): 0 | Reduction (Homo sapiens [4]): 79% | Cytotoxicity (Homo sapiens [5]): 0 | Reduction (Homo sapiens [6]): 100% | Reduction (Homo sapiens [7]): 41% | Reduction (Homo sapiens [8]): 94% | Reduction (Homo sapiens [9]): 32% | Cytotoxicity (Homo sapiens [10]): 0

COc1nc(N)nc2c1nnn2C1CC(CO)C(O)C1O (stereo not given)
EC50 (P388): 63 µM
